{"source": "patent US20200216439A1", "about": "“HETERO-1,5,6,7-TETRAHYDRO-4H-INDOL-4-ONES” (BAYER PHARMA AKTIENGESELLSCHAFT, priority 2015, published 2020)", "note": "pIC50: −log10 of the molar value.", "data": [{"biological_target": "T1, catalytic domain of human Bub1 (amino acids 704-1085) (Homo sapiens, UniProt O43683)", "T1 construct": "catalytic domain of human Bub1 (amino acids 704-1085); His6 (N); made in house; host or cells: Hi5 insect cells", "T1 sequence (O43683 704-1085)": "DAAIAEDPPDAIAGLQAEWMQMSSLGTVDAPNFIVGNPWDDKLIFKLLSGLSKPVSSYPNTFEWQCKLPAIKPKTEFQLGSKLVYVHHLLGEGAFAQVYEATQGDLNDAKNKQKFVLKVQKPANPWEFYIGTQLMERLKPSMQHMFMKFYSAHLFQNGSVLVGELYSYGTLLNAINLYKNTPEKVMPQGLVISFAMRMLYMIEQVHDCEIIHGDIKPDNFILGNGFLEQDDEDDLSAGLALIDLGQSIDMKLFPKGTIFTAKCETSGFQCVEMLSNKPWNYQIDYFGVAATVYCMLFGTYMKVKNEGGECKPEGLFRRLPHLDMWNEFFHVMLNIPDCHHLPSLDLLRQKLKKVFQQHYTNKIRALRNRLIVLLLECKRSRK", "test": "Bub1 kinase assay (TR-FRET)", "assay_type": "biochemical", "settings": "TR-FRET; ATP 10 μM, peptide substrate 1 μM; 60 min at 22° C.; average or median if tested more than once; read-out: Inhibition of Bub1 kinase IC50", "outline": "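Human Bub1 catalytic domain (704-1085, His6-tagged, Hi5-expressed, ~200 ng/mL) preincubated with compound 15 min at 22 °C, then reacted 60 min at 22 °C with 10 μM ATP and 1 μM biotinylated peptide substrate, pH 7.5. EDTA stop; TR-FRET 665/620 ratio; IC50 from 4-parameter fit, 11 concentrations in duplicate.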", "values": [{"smiles": "CN(C)S(=O)(=O)N1CC(=O)c2c([nH]c(-c3ccncc3OCC(F)F)c2Nc2ccccc2)C1", "note": "[Example 281, 3-Anilino-2-[3-(2,2-difluoroethoxy)pyridin-4-yl]-N,N-dimethyl-4-oxo-1,4,5,7-tetrahydro-6H-pyrrolo[2,3-c]pyridine-6-sulfonamide]", "pIC50": 8.00}, {"smiles": "CN(C)S(=O)(=O)N1CC(=O)c2c([nH]c(-c3ccncc3OCC3CC3)c2Nc2ccccc2)C1", "note": "[Example 282, 2-[3-(Cyclopropylmethoxy)pyridin-4-yl]-N,N-dimethyl-4-oxo-3-(phenylamino)-1 4,5,7-tetrahydro-6H-pyrrolo[2,3-c]pyridine-6-sulfonamide]", "pIC50": 7.92}, {"smiles": "COc1ccc(C(=O)Nc2cc(-c3[nH]c4c(c3Nc3ccccc3)C(=O)CN(C(=O)OC(C)(C)C)C4)ccn2)cc1F", "note": "[Example 283, tert-Butyl 2-2-[(3-fluoro-4-methoxybenzoyl)amino]pyridin-4-yl-4-oxo-3-(phenylamino)-1,4,5,7-tetrahydro-6H-pyrrolo[2,3-c]pyridine-6-carboxylate]", "pIC50": 7.42}, {"smiles": "COc1ccc(C(=O)Nc2cc(-c3[nH]c4c(c3Nc3ccccc3)C(=O)CNC4)ccn2)cc1F", "note": "[Example 284, 3-Fluoro-4-methoxy-N-4-[4-oxo-3-(phenylamino)-4,5,6,7-tetrahydro-1H-pyrrolo[2,3-c]pyridin-2-yl]pyridin-2-ylbenzamide]", "pIC50": 7.28}, {"smiles": "COc1ccc(C(=O)Nc2cc(-c3[nH]c4c(c3Nc3ccccc3)C(=O)CN(C(C)=O)C4)ccn2)cc1F", "note": "[Example 285, N-4-[6-Acetyl-4-oxo-3-(phenylamino)-4,5,6,7-tetrahydro-1H-pyrrolo[2,3-c]pyridin-2-yl]pyridin-2-yl-3-fluoro-4-methoxybenzamide]", "pIC50": 8.22}, {"smiles": "COc1ccc(C(=O)Nc2cc(-c3c(Nc4ccccc4)c4c(n3C)CN(C(=O)OC(C)(C)C)CC4=O)ccn2)cc1F", "note": "[Example 286, tert-Butyl 2-2-[(3-fluoro-4-methoxybenzoyl)amino]pyridin-4-yl-1-methyl-4-oxo-3-(phenylamino)-1,4,5,7-tetrahydro-6H-pyrrolo[2,3-c]pyridine-6-carboxylate]", "pIC50": 5.98}, {"smiles": "COc1ccc(C(=O)Nc2cc(-c3c(Nc4ccccc4)c4c(n3C)CNCC4=O)ccn2)cc1F", "note": "[Example 287, 3-Fluoro-4-methoxy-N-4-[1-methyl-4-oxo-3-(phenylamino)-4,5,6,7-tetrahydro-1H-pyrrolo[2,3-c]pyridin-2-yl]pyridin-2-ylbenzamide]", "pIC50": 5.69}, {"smiles": "COc1ccc(C(=O)Nc2cc(-c3c(Nc4ccccc4)c4c(n3C)CN(C(C)=O)CC4=O)ccn2)cc1F", "note": "[Example 288, N-4-[6-Acetyl-1-methyl-4-oxo-3-(phenylamino)-4,5,6,7-tetrahydro-1H-pyrrolo[2,3-c]pyridin-2-yl]pyridin-2-yl-3-fluoro-4-methoxybenzamide]", "pIC50": 6.39}, {"smiles": "COc1ccc(C(=O)Nc2cc(-c3[nH]c4c(c3Nc3ccccc3)C(=O)CN(S(=O)(=O)N(C)C)C4)ccn2)cc1F", "note": "[Example 289, N-4-[6-(Dimethylsulfamoyl)-4-oxo-3-(phenylamino)-4,5,6,7-tetrahydr-1H-pyrrolo[2,3-c]pyridin-2-yl]pyridin-2-yl-3-fluoro-4-methoxybenzamide]", "pIC50": 8.22}, {"smiles": "COc1ccc(C(=O)Nc2cc(-c3c(Nc4ccccc4)c4c(n3C)CN(S(=O)(=O)N(C)C)CC4=O)ccn2)cc1F", "note": "[Example 290, N-4-[6-(Dimethylsulfamoyl)-1-methyl-4-oxo-3-(phenylamino)-4,5,6,7-tetrahydro-1H-pyrrolo[2,3-c]pyridin-2-yl]pyridin-2-yl-3-fluoro-4-methoxybenzamide]", "pIC50": 7.14}, {"smiles": "COc1ccc(C(=O)Nc2cc(-c3[nH]c4c(c3Nc3ccccc3)C(=O)CN(C(=O)N3CCOCC3)C4)ccn2)cc1F", "note": "[Example 291, 3-Fluoro-4-methoxy-N-4-[6-(morpholin-4-ylcarbonyl)-4-oxo-3-(phenylamino)-4,5,6,7-tetrahydro-1H-pyrrolo[2,3-c]pyridin-2-yl]pyridin-2-ylbenzamide]", "pIC50": 8.22}, {"smiles": "COc1ccc(C(=O)Nc2cc(-c3[nH]c4c(c3Nc3ccccc3)C(=O)CN(C(=O)N3C[C@@H](C)O[C@@H](C)C3)C4)ccn2)cc1F", "note": "[Example 292, N-4-[6-[(2R,6S)-2,6-Dimethylmorpholin-4-yl]carbonyl-4-oxo-3-(phenylamino)-4,5,6,7-tetrahydro-1H-pyrrolo[2,3-c]pyridin-2-yl]pyridin-2-yl-3-fluoro-4-methoxybenzamide]", "pIC50": 6.67}, {"smiles": "COc1ccc(C(=O)Nc2cc(-c3[nH]c4c(c3Nc3ccccc3)C(=O)CN(C(=O)N3CCCC3)C4)ccn2)cc1F", "note": "[Example 293, 3-Fluoro-4-methoxy-N-4-[4-oxo-3-(phenylamino)-6-(pyrrolidin-1-ylcarbonyl)-4,5,6,7-tetrahydro-1H-pyrrolo[2,3-c]pyridin-2-yl]pyridin-2-ylbenzamide]", "pIC50": 8.00}, {"smiles": "Cc1ccc(Nc2c(-c3ccnc(N)c3)[nH]c3c2C(=O)CN(C(=O)OC(C)(C)C)C3)cc1", "note": "[Example 294, tert-butyl 2-(2-Aminopyridin-4-yl)-3-[(4-methylphenyl)amino]-4-oxo-1,4,5,7-tetrahydro-6H-pyrrolo[2,3-c]pyridine-6-carboxylate]", "pIC50": 6.30}, {"smiles": "CC(=O)Nc1cc(-c2[nH]c3c(c2Nc2ccc(C)cc2)C(=O)CN(C(=O)OC(C)(C)C)C3)ccn1", "note": "[Example 295, tert-Butyl 2-(2-acetamidopyridin-4-yl)-3-[(4-methylphenyl)amino]-4-oxo-1,4,5,7-tetrahydro-6H-pyrrolo[2,3-c]pyridine-6-carboxylate]", "pIC50": 6.44}, {"smiles": "CC(C)(C)OC(=O)N1CC(=O)c2c([nH]c(-c3ccnc(N)c3)c2Nc2ccc(F)cc2)C1", "note": "[Example 296, tert-Butyl 2-(2-aminopyridin-4-yl)-3-[(4-fluorophenyl)amino]-4-oxo-1,4,5,7-tetrahydro-6H-pyrrolo[2,3-c]pyridine-6-carboxylate]", "pIC50": 6.76}, {"smiles": "CC(=O)Nc1cc(-c2[nH]c3c(c2Nc2ccc(F)cc2)C(=O)CN(C(=O)OC(C)(C)C)C3)ccn1", "note": "[Example 297, tert-Butyl 2-(2-acetamidopyridin-4-yl)-3-[(4-fluorophenyl)amino]-4-oxo-1,4,5,7-tetrahydro-6H-pyrrolo[2,3-c]pyridine-6-carboxylate]", "pIC50": 7.26}, {"smiles": "CC(C)(C)OC(=O)N1CC(=O)c2c([nH]c(-c3ccncc3C(F)(F)F)c2Nc2ccccc2)C1", "note": "[Example 298, tert-Butyl 4-oxo-3-(phenylamino)-2-[3-(trifluoromethyl)pyridin-4-yl]-1,4,5,7-tetrahydro-6H-pyrrolo[2,3-c]pyridine-6-carboxylate]", "pIC50": 6.05}, {"smiles": "O=C1CSCc2[nH]c(-c3ccncc3C(F)(F)F)c(Nc3ccccc3)c21", "note": "[Example 299, 3-(Phenylamino)-2-[3-(trifluoromethyl)pyridin-4-yl]-1,7-dihydrothiopyrano[3,4-b]pyrrol-4(5H)-one]", "pIC50": 5.13}, {"smiles": "O=C1COCc2[nH]c(-c3ccncc3C(F)(F)F)c(Nc3ccccc3)c21", "note": "[Example 300, 3-(Phenylamino)-2-[3-(trifluoromethyl)pyridin-4-yl]-1,7-dihydropyrano[3,4-b]pyrrol-4(5H)-one]", "pIC50": 5.09}, {"smiles": "CC(=O)Nc1cc(-c2[nH]c3c(c2Nc2ccccc2)C(=O)CN(C(=O)SC(C)(C)C)C3)ccn1", "note": "[Example 301, S-tert-butyl 2-(2-acetamidopyridin-4-yl)-3-anilino-4-oxo-1,4,5,7-tetrahydro-6H-pyrrolo[2,3-c]pyridine-6-carbothioate]", "pIC50": 7.48}, {"smiles": "CC(=O)Nc1cc(-c2[nH]c3c(c2Nc2ccc(F)cc2)C(=O)CNC3)ccn1", "note": "[Example 302, N-(4-{3-[(4-Fluorophenyl)amino]-4-oxo-4,5,6,7-tetrahydro-1H-pyrrolo[2,3-c]pyridin-2-yl}pyridin-2-yl)acetamide]", "pIC50": 6.53}, {"smiles": "CC(=O)Nc1cc(-c2[nH]c3c(c2Nc2ccc(C)cc2)C(=O)CNC3)ccn1", "note": "[Example 303, N-(4-{3-[(4-Methylphenyl)amino]4-oxo-4,5,6,7-tetrahydro-1H-pyrrolo[2,3-c]pyridin-2-yl}pyridin-2-yl)acetamide]", "pIC50": 5.94}, {"smiles": "CC(C)(C)SC(=O)N1CC(=O)c2c([nH]c(-c3ccncc3OCC(F)F)c2Nc2ccccc2)C1", "note": "[Example 304, S-tert-Butyl 3-anilino-2-[3-(2,2-difluoroethoxy)pyridin-4-yl]-4-oxo-1,4,5,7-tetrahydro-6H-pyrrolo[2,3c]pyridine-6-carbothioate]", "pIC50": 6.63}, {"smiles": "COc1ccc(C(=O)Nc2cc(-c3[nH]c4c(c3Nc3ccccc3)C(=O)CN(C(=O)SC(C)(C)C)C4)ccn2)cc1F", "note": "[Example 305, S-tert-butyl 3-anilino-2-{2-[(3-fluoro-4-methoxybenzoyl)amino]pyridin-4-yl}-4-oxo-1,4,5,7-tetrahydro-6H-pyrrolo[2,3-c]pyridine-6-carbothioate]", "pIC50": 6.63}, {"smiles": "COc1cc(C(=O)Nc2cc(-c3[nH]c4c(c3Nc3ccccc3)C(=O)CN(C(=O)SC(C)(C)C)C4)ccn2)ccc1F", "note": "[Example 306, S-tert-butyl 3-anilino-2-{2-[(4-fluoro-3-methoxybenzoyl)amino]pyridin-4-yl}-4-oxo-1,4,5,7-tetrahydro-6H-pyrrolo[2,3-c]pyridine-6-carbothioate]", "pIC50": 6.77}, {"smiles": "CC(C)(C)SC(=O)N1CC(=O)c2c([nH]c(-c3ccnc(NC(=O)C4(F)CC4)c3)c2Nc2ccccc2)C1", "note": "[Example 307, S-tert-Butyl 3-anilino-2-{2-([(1-fluorocyclopropyl)carbonyl]amino}pyridin-4-yl)-4-oxo-1,4,5,7-tetrahydro-6H-pyrrolo[2,3-c]pyridine-6-carbothioate]", "pIC50": 6.74}, {"smiles": "CC(C)(C)SC(=O)N1CC(=O)c2c([nH]c(-c3ccnc(NC(=O)[C@@H]4C[C@@H]4F)c3)c2Nc2ccccc2)C1", "note": "[Example 308, S-tert-Butyl 3-anilino-2-[2-({[(1S,2S)-2-fluorocyclopropyl]carbonyl}amino)pyridin-4-yl]-4-oxo-1,4,5,7-tetrahydro-6H-pyrrolo[2,3-c]pyridine-6-carbothioate]", "pIC50": 7.51}]}]}
